Test results from patent US10160755B2 (Plexxikon Inc., priority 2015, dated 2018).

Target: T1, BA/F3-FLT3-ITD + F691L cells (Homo sapiens, UniProt P36888, F691L, cells depend on it, form not given)
T1 sequence (P36888 1-993 F691L): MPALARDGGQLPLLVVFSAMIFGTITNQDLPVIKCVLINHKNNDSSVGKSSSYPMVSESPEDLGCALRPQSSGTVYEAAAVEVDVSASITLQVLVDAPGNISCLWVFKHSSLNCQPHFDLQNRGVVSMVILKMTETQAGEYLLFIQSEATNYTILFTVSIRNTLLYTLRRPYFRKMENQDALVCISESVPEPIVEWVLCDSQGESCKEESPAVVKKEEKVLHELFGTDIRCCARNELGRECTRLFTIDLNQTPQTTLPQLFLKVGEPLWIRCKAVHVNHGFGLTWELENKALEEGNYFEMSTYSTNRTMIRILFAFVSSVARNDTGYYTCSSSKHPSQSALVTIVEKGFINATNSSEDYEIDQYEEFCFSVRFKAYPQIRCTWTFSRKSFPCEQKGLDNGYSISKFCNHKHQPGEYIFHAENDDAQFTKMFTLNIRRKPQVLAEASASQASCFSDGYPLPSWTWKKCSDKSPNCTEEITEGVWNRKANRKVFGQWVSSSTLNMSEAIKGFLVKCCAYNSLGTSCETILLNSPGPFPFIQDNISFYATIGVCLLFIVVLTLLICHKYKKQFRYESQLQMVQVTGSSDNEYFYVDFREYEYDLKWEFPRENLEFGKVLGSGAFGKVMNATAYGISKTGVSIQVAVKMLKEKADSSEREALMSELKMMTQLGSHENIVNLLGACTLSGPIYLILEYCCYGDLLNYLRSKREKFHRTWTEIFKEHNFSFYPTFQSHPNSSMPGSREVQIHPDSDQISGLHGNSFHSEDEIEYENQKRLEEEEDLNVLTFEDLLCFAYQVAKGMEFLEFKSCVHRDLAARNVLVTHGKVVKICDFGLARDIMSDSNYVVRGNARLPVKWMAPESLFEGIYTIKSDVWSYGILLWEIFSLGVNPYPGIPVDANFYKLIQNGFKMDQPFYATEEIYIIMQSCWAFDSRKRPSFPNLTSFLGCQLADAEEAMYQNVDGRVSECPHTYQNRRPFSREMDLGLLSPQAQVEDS
Test: BA/F3-FLT3-ITD + F691L cell proliferation assay (CellTiter-Glo)
Assay type: cell-based, murine
Details: BaF3 FLT3 ITD/F691L cells; read-out: Cell Activity (IC50 μM) BaF3_FLT3_ITD/F691L
Description: The FLT3 inhibitors may also be assessed using leukemia cell lines that express endogenous FLT3-ITD or cells that are engineered to express wild-type or mutant FLT3. The cells expressing endogenous FLT3 are dependent upon FLT3 catalytic activity for growth. For the engineered cells, murine BA/F3 cells were transfected with full-length FLT3 (either wild-type, or containing the ITD, D835Y, or F691L mutations, as noted). The parental BA/F3 cells are dependent upon Interleukin-3 (IL-3) for survival, and introduction of the FLT3 constructs renders these cells dependent upon FLT3 kinase activity when cultured in the absence of IL-3. Engineered BA/F3 cell growth assays can be performed in either the absence or presence of IL-3, to assess the compound inhibition of FLT3 or to detect the presence of off-target activity, respectively. Inhibitors of FLT3 kinase activity reduce or eliminate the FLT3 oncogenic signaling, resulting in reduced cell proliferation. This inhibition is measured as a function of compound concentration to assess IC50 values.
Cells were seeded at 1×10^4 cells per well of a 96 well cell culture plate in 50 μl of cell culture medium. Compounds were dissolved in DMSO, typically at a concentration of 5 mM and were serially diluted 1:3 for a total of eight points and added to the cells to final concentrations of 10, 3.3, 1.1, 0.37, 0.12, 0.041, 0.014 and 0.0046 μM in 100 μl cell culture medium (final concentration 0.2% DMSO). […] The cells were incubated at 37° C., 5% CO2 for three days. CellTiter-Glo Buffer (Promega Cell Viability Assay catalog #G7573) and substrate were equilibrated to room temperature, and enzyme/substrate Recombinant Firefly Luciferase/Beetle Luciferin was reconstituted. The cell plates were equilibrated to room temperature for 30 minutes, then lysed by addition of an equivalent volume of the Celltiter-Glo Reagent. The plate was mixed for 10 minutes on a plate shaker to lyse the cells. The plates were read on a Tecan M1000 using Luminescence protocol modified to read 0.1 s per well. The luminescence reading assesses the ATP content, which correlates directly with cell number such that the reading as a function of compound concentration was used to determine the IC50 value.

GI50	Structure (SMILES)
0.0001 to 1 µM	FC(F)(F)Oc1cccc(-c2cnc3[nH]cc(-c4ccc5ncn(C6CCCNC6)c5c4)c3n2)c1 (stereo not drawn) [P-193, 7-[3-(3-piperidyl)benzimidazol-5-yl]-2-[3-(trifluoromethoxy)phenyl]-5H-pyrrolo[2,3-b]pyrazine]
0.0001 to 1 µM	CC(C)(C)n1cnc2ccc(-c3c[nH]c4ncc(NC(=O)c5cccc(C#N)c5)cc34)cc21 [P-235, N-[3-(3-tert-butylbenzimidazol-5-yl)-1H-pyrrolo[2,3-b]pyridin-5-yl]-3-cyano-benzamide]
0.0001 to 1 µM	CC(C)(C)n1cnc2ccc(-c3c[nH]c4ncc(-c5cccc(N6CCCCS6(=O)=O)c5)cc34)cc21 [P-221, 2-[3-[3-(3-tert-butylbenzimidazol-5-yl)-1H-pyrrolo[2,3-b]pyridin-5-yl]phenyl]thiazinane 1,1-dioxide]
0.0001 to 1 µM	COc1ncc(-c2cnc3[nH]cc(-c4ccc5ncn(C(C)C)c5c4)c3c2)cn1 [P-269, 1-isopropyl-6-[5-(2-methoxypyrimidin-5-yl)-1H-pyrrolo[2,3-b]pyridin-3-yl]benzimidazole]
0.0001 to 1 µM	COc1cc(C(=O)Nc2cnc3[nH]cc(-c4ccc5ncn(C6CCCNC6)c5c4)c3c2)ccn1 (stereo not drawn) [P-247, 2-methoxy-N-[3-[3-(3-piperidyl)benzimidazol-5-yl]-1H-pyrrolo[2,3-b]pyridin-5-yl]pyridine-4-carboxamide]
0.0001 to 1 µM	CC(C)(C)n1cnc2ccc(-c3c[nH]c4ncc(-c5ccc(N6CCOCC6)cc5)nc34)cc21 [P-100, 4-[4-[7-(3-tert-butylbenzimidazol-5-yl)-5H-pyrrolo[2,3-b]pyrazin-2-yl]phenyl]morpholine]
0.0001 to 1 µM	COc1ncc(-c2cnc3[nH]cc(-c4ccc5ncn(C6CCCNC6)c5c4)c3n2)cn1 (stereo not drawn) [P-264, 2-(2-methoxypyrimidin-5-yl)-7-[3-(3-piperidyl)benzimidazol-5-yl]-5H-pyrrolo[2,3-b]pyrazine]
0.0001 to 1 µM	CC(C)(C)n1cnc2ccc(-c3c[nH]c4ncc(C(=O)Nc5cccc(C#N)c5)cc34)cc21 [P-218, 3-(3-tert-butylbenzimidazol-5-yl)-N-(3-cyanophenyl)-1H-pyrrolo[2,3-b]pyridine-5-carboxamide]
0.0001 to 1 µM	COc1cnc2[nH]cc(-c3ccc4ncn(-c5ccc(F)cc5)c4c3)c2c1 [P-103, 1-(4-fluorophenyl)-6-(5-methoxy-1H-pyrrolo[2,3-b]pyridin-3-yl)benzimidazole]
0.0001 to 1 µM	c1cc(-c2cnc3[nH]cc(-c4ccc5ncn(C6CCCNC6)c5c4)c3n2)cc(N2CCOCC2)n1 (stereo not drawn) [P-262, 4-[4-[7-[3-(3-piperidyl)benzimidazol-5-yl]-5H-pyrrolo[2,3-b]pyrazin-2-yl]-2-pyridyl]morpholine]
0.0001 to 1 µM	N#Cc1cccc(C#Cc2cnc3[nH]cc(-c4ccc5ncn(C6CCCNC6)c5c4)c3c2)c1 (stereo not drawn) [P-243, 3-[2-[3-[3-(3-piperidyl)benzimidazol-5-yl]-1H-pyrrolo[2,3-b]pyridin-5-yl]ethynyl]benzonitrile]
0.0001 to 1 µM	C(#Cc1cnc2[nH]cc(-c3ccc4ncn(C5CCCNC5)c4c3)c2n1)c1ccccc1 (stereo not drawn) [P-248, 2-(2-phenylethynyl)-7-[3-(3-piperidyl)benzimidazol-5-yl]-5H-pyrrolo[2,3-b]pyrazine]
0.0001 to 1 µM	CC(C)(C)n1cnc2ccc(-c3c[nH]c4ncc(-c5cccc(S(=O)(=O)N6CCCC6)c5)nc34)cc21 [P-229, 7-(3-tert-butylbenzimidazol-5-yl)-2-(3-pyrrolidin-1-ylsulfonylphenyl)-5H-pyrrolo[2,3-b]pyrazine]
0.0001 to 1 µM	FC(F)(F)Cn1cc(-c2cnc3[nH]cc(-c4ccc5ncn(C6CCCNC6)c5c4)c3n2)cn1 (stereo not drawn) [P-258, 7-[3-(3-piperidyl)benzimidazol-5-yl]-2-[1-(2,2,2-trifluoroethyl)pyrazol-4-yl]-5H-pyrrolo[2,3-b]pyrazine]
0.0001 to 1 µM	CC(C)(C)n1cnc2ccc(-c3c[nH]c4ncc(-c5cnn(C(F)F)c5)nc34)cc21 [P-255, 7-(3-tert-butylbenzimidazol-5-yl)-2-[1-(difluoromethyl)pyrazol-4-yl]-5H-pyrrolo[2,3-b]pyrazine]
